Values of other authors in patent publication US7429577B2, “Augmentation of atypical antipsychotic agent pharmacotherapy with chromium supplementation” (priority 2002, dated 2008).

Key:
[1] = olanzapine treatment of patients
[2] = healthy volunteers, 200 μg chromium picolinate per day
[3] = obese Caucasian patients with type-II diabetes receiving sulphonylurea and metformin
[4] = humans, in particular subjects with plasma cholesterol above the 200 μg/ml level

| Compound | levels of insulin, leptin, blood lipids; insulin resistance [1] | LDL cholesterol decreased by [2] [%] | fasting blood glucose decreased by [2] [%] | glycosylated hemoglobin decreased by [2] [%] | total cholesterol decreased by [2] [%] | fasting insulin levels and glucose control [3] | blood lipids [4] |
| --- | --- | --- | --- | --- | --- | --- | --- |
| Cc1cc2c(s1)Nc1ccccc1N=C2N1CCN(C)CC1 [olanzapine] | elevated levels of insulin, leptin, and blood lipids, as well as insulin resistance |  |  |  |  |  |  |
| chromium picolinate |  | 11 | 24 | 19 | 13 | lowering fasting insulin levels without impairing glucose control | efficacious in lowering blood lipids |
